≈ marks a conversion by molar mass, not a printed value. Where two headings read alike, the source gives them in different places. Some results are limits rather than exact numbers.

The text below walks through data of US20230330019A1, “EMULSION FORMULATIONS OF POORLY WATER-SOLUBLE COMPOUNDS” (priority 2022, published 2023).

Data set [1] concerns the target T1, Janus kinase 3 (JAK3) (Homo sapiens, UniProt P52333).
T1 sequence (P52333 1-1124): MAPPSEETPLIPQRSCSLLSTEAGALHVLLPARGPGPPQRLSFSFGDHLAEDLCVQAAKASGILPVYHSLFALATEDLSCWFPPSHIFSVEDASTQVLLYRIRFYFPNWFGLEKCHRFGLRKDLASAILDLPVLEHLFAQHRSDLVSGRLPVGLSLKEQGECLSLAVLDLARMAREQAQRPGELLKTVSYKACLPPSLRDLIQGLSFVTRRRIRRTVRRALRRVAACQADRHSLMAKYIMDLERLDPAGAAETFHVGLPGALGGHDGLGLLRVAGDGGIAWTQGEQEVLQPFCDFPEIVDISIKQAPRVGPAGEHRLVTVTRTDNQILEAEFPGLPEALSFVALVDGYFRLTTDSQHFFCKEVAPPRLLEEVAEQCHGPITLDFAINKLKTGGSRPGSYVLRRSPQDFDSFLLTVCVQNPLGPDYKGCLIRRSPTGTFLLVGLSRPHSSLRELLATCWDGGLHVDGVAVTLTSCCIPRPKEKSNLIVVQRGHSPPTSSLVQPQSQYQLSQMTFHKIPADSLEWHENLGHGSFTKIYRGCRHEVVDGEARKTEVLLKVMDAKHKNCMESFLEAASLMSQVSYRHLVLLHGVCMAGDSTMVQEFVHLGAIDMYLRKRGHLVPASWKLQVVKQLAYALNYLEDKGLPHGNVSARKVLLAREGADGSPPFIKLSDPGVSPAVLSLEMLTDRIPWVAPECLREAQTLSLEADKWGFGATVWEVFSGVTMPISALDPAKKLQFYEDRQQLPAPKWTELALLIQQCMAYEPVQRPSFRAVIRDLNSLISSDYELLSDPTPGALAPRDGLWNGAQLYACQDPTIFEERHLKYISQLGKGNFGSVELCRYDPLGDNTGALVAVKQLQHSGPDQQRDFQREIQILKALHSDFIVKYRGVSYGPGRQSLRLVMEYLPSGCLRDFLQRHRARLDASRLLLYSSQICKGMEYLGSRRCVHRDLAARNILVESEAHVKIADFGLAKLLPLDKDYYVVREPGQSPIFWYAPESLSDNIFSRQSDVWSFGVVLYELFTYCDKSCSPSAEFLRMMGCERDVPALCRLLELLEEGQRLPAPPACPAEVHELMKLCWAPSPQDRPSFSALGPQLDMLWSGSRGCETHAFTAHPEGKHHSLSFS
The following applies: cited from earlier work.

The conditions of data set [2]: cited from earlier work.
The nature of data set [3]: Water solubility of exemplified compounds, USP solubility definition. The format is physicochemical. The source says:
“Solubility” generally refers to the degree to which a substance dissolves in a solvent to make a solution (usually expressed as grams of solute per liter of solvent). Solubility of one fluid (liquid or gas) in another may be complete (totally miscible; e.g., methanol and water) or partial (e.g., oil and water dissolve only slightly). In general, “like dissolves like” (e.g., aromatic hydrocarbons dissolve in each other but not in water). Solubility is the ability of a solid, liquid, or gaseous chemical substance (referred to as the solute) to dissolve in a solvent (usually a liquid) and form a solution. The solubility of a substance depends on the types of solvent used, their polarity, and the temperature and pressure to which they are subjected. The solubility of a substance in a particular solvent is measured by the concentration of the saturated solution. A solution is considered saturated when adding additional solute no longer increases the concentration of the solution. The degree of solubility ranges widely depending on the substances, from infinitely soluble (fully miscible), such as ethanol in water, to poorly soluble, such as silver chloride in water. The term “insoluble” is often applied to poorly soluble compounds. Under certain conditions, the equilibrium solubility can be exceeded, yielding a supersaturated solution.
“Poorly water-soluble chemical compounds”: The United States Pharmacopeia (USP) designates the solubility of drugs as parts of solvent required for one part solute. […] The USP lists the solubility of a drug as the quantity of milliliters of solvent in which 1 g of solute will dissolve and assigns a descriptive term in the summary provided below.

The conditions of data set [4]: cited from earlier work. This is another data set of the same source.
For data set [5] the following is noted: cited from earlier work. This is another data set of the same source.
A short description of data set [6]: Solubility screening panel in DEGEE. The format is physicochemical. The source says:
Fisetin, trans-resveratrol, and milk thistle extract (comprising silymarin) were all found to be soluble in DEGEE in a solubility screening panel evaluating surfactants and other emulsifiers for use in topical delivery. An initial objective was to find a suitable miscible oil for use in hair applications, such as argan, sesame, sunflower, fractionated coconut, and grape seed oils. […] The next step was to evaluate oil soluble emulsifiers, such as glyceryl oleate, sorbitan oleate, lauryl oleate, and lauryl sulfate. […] Oleic acid (a fatty acid) is known to be miscible with DEGEE, but it is a […] fatty acid, which makes it an unfavorable choice for use in a long-term topical dosing formulation. Oleic acid was evaluated with a mixture of sorbitan laurate, polyglyceryl-4 laurate, and dilauryl citrate. This formulation made a miscible mixture with fisetin, trans-resveratrol, and milk thistle dissolved in DEGEE. However, the dilution of the mixture with water created a suspension, and once again, the solids precipitated out after approximately one hour.

For data set [7] the following is noted: cited from earlier work. The source holds these as a separate data set.

Take `C/C=C(/C)C(=O)O[C@H]1[C@@H]2[C@H](C)C(=O)O[C@@H]2C[C@@H](C)[C@@H]2C=CC(=O)[C@]21C` [Brevilin A]: the “inhibition of JAK3” value in data set [1] is listed as “inhibit”.
Take `O=C1c2c(O)cc(O)cc2O[C@H](c2ccc(O)c(O)c2)[C@H]1O` [Dihydroquercetin]: the “Water Solubility” value in data set [2] was 400 µg/mL. In data set [3] (water), the “Definition (USP solubility descriptive term)” value (“Definition” below) is “very slightly insoluble” and the mass_water/mass_solute is 2,500.
Turning to `O=C(O[C@@H]1Cc2c(O)cc(O)cc2O[C@@H]1c1cc(O)c(O)c(O)c1)c1cc(O)c(O)c(O)c1` [EGCG, [(2R,3R)-5,7-dihydroxy-2-(3,4,5-trihydroxyphenyl)chroman-3-yl]3,4,5-trihydroxybenzoate], the “time at which blood levels peak” value in data set [4] (after consumption (oral)) was at most 1.7 h. Moreover, in data set [4] (from almost immediately), the “time by which majority of unchanged EGCG is excreted into the urine” value is at most 8 h. For the same molecule, the absorbed plasma half-life result in data set [4] (oral) is listed as “about 5 hours”.
For `O=c1c(O)c(-c2ccc(O)c(O)c2)oc2cc(O)ccc12` [Fisetin, 2-(3,4-dihydroxyphenyl)-3,7-dihydroxy-4H-1-benzopyran-4-one], in data set [5], the log partition coefficient (log P) (as a rule, a log measure of how a compound divides between an organic and an aqueous phase) is listed as 3.2. The “solubility in DEGEE” value in data set [6] is reported as “soluble”. Moreover, in data set [2], the reported aqueous solubility result is reported as “about 0.01 mg/mL” and the “Water Solubility” value was 10 µg/mL. For the same molecule, the aqueous solubility (as a rule, how much of the substance goes into solution per volume) in data set [2] (literature) was 10.45 µg/mL (≈ 36.5 µM). In data set [3] (water), the “Definition” value is on record as “practically insoluble” and the mass_water/mass_solute was 100,000.
As to `Oc1ccc(/C=C/c2cc(O)cc(O)c2)cc1` [trans-Resveratrol, 5-[(E)-2-(4-hydroxyphenyl)ethen-1-yl]benzene-1,3-diol], in data set [6], the “solubility in DEGEE” value was “soluble”. Further, the reported aqueous solubility entry in data set [2] is listed as “about 0.03 mg/mL”. Also, in data set [3] (water), the “Definition” value was “practically insoluble” and the mass_water/mass_solute is on record as 33,333. Moreover, the half-life result in data set [7] (in vivo) is “about 15 min”. In data set [7] (oral), the bioavailability entry is recorded as “about 0.5%”.
For Silymarin, in data set [3], the “Definition” value is on record as “very slightly insoluble” and the mass_water/mass_solute is on record as 2,500.
